Reference: patent publication US20190307664A1, “METHOD AND COSMETIC COMPOSITION FOR ENHANCED TRANSDERMAL DELIVERY OF ALKYL SUBSTITUTED RESORCINOL” (CONOPCO, INC., D/B/A UNILEVER, priority 2016, published 2019)

System: HeMnDP melanocyte monoculture
Assay: Melanin content assay in melanocyte monoculture (after Calcein-AM viability assay)
Format: cell-based
Conditions: 72 hours
Experimental: All samples were analysed to determine the extent of their ability to bring about skin lightening by checking the cell viability and melanin content assay. Set Up of Cultures Involved the Following Steps: • ([…] per well (single wells/treatment) in 24-well Nunc plates on Day-0 were seeded to establish a melanocyte monoculture system. • (ii) The volume of media per well was limited to 1 ml of Melanocyte Growth Media (MGM) • (iii) 24 hours later, fresh media containing actives was added again. At this stage also, 1 ml of MGM was used. • (iv) Plates were incubated for 72 hours at 37° C. in a CO2 incubator. • (v) At the end, the plates were sent for Calcein assay, described hereinafter, followed by melanin content estimation. Calcein-AM Viability Assay • (i) The spent media was removed from each well of a 24-well plate and rinsed once with 400 μl of 1×PBS-Ca-Mg (see preparation below), including wells without cells (Control wells). • (ii) One μM Calcein-AM (working stock) in 1×PBS-Ca-Mg from 1 mM stock (e.g. 10 μl of 1 mM Calcein stock in 100% DMSO in 10 ml of 1×PBS-Ca-Mg) was prepared. About 400 μl of Calcein-AM working stock solution was added to each well, including the controls cells. • (iii) The plates were covered with aluminum foil and were incubated for 30 minutes in a CO2 incubator. • (iv) In the meantime, fluorescence was measured (excitation at 490 nm and emission at 520 nm) using TECAN® instrument after 30 minutes of dye incubation. • (v) After reading the plates, the buffer containing Calcein was removed and melanin content assay was then carried out. […] The % inhibition was then calculated for each case. Higher values of % inhibition indicate an active ingredient's potential to serve as a skin lightening agent. The tests of Example 2 were repeated with isonicotinamide instead of picolinamide.

NC(=O)c1ccccn1 [Ex-D, Picolinamide]
Inhibition in melanin synthesis (picolinamide 122 μg): 1% | Inhibition in melanin synthesis (picolinamide 1220 μg): 27%

CCCCCCc1ccc(O)cc1O [Ex-B, 4-hexyl resorcinol]
Inhibition in melanin synthesis (4-hexyl Resorcinol 0.192 μg, Example 2): 3% | Inhibition in melanin synthesis (4-hexyl Resorcinol 0.192 μg, Example 3): 3% | Inhibition in melanin synthesis (4-hexyl Resorcinol 1.92 μg, Example 2): 31% | Inhibition in melanin synthesis (4-hexyl Resorcinol 1.92 μg, Example 3): 31%

NC(=O)c1ccncc1 [Ex-I, Isonicotinamide]
Inhibition in melanin synthesis (Isonicotinamide 122 μg): −16% | Inhibition in melanin synthesis (Isonicotinamide 1220 μg): 10%
